Experimental findings from publication PMC3705398 (Marine Drugs, 2013) are described below.

SMILES strings stand for the structures. “Also recorded” adds a separate entry of the source. Like-named read-outs stand apart in the source and are kept apart here. Where a SMILES comes first, the peptide text is derived from it.

The target in assay [1] is T1, CaV2.2 (N-type) calcium channels in rat superior cervical ganglion (SCG) neurons (Rattus norvegicus, UniProt Q02294).
T1 construct: SCG neurons are the most used native preparation to assess CaV2.2 (N-type) channel function; endogenous in cells
The assay can be described thus: cell-based. The format is cell-based, rat (Wistar).

Assay [2] has as its system adult male ICR mice. To be noted: mouse, in vivo.
Assay [3] relates to adult male ICR mice. As to conditions: mouse, in vivo. This is another data set of the same source.
The mark [4] stands for this setting: read-out: inhibition of calcium current.

T1 sequence (Q02294 whole entry): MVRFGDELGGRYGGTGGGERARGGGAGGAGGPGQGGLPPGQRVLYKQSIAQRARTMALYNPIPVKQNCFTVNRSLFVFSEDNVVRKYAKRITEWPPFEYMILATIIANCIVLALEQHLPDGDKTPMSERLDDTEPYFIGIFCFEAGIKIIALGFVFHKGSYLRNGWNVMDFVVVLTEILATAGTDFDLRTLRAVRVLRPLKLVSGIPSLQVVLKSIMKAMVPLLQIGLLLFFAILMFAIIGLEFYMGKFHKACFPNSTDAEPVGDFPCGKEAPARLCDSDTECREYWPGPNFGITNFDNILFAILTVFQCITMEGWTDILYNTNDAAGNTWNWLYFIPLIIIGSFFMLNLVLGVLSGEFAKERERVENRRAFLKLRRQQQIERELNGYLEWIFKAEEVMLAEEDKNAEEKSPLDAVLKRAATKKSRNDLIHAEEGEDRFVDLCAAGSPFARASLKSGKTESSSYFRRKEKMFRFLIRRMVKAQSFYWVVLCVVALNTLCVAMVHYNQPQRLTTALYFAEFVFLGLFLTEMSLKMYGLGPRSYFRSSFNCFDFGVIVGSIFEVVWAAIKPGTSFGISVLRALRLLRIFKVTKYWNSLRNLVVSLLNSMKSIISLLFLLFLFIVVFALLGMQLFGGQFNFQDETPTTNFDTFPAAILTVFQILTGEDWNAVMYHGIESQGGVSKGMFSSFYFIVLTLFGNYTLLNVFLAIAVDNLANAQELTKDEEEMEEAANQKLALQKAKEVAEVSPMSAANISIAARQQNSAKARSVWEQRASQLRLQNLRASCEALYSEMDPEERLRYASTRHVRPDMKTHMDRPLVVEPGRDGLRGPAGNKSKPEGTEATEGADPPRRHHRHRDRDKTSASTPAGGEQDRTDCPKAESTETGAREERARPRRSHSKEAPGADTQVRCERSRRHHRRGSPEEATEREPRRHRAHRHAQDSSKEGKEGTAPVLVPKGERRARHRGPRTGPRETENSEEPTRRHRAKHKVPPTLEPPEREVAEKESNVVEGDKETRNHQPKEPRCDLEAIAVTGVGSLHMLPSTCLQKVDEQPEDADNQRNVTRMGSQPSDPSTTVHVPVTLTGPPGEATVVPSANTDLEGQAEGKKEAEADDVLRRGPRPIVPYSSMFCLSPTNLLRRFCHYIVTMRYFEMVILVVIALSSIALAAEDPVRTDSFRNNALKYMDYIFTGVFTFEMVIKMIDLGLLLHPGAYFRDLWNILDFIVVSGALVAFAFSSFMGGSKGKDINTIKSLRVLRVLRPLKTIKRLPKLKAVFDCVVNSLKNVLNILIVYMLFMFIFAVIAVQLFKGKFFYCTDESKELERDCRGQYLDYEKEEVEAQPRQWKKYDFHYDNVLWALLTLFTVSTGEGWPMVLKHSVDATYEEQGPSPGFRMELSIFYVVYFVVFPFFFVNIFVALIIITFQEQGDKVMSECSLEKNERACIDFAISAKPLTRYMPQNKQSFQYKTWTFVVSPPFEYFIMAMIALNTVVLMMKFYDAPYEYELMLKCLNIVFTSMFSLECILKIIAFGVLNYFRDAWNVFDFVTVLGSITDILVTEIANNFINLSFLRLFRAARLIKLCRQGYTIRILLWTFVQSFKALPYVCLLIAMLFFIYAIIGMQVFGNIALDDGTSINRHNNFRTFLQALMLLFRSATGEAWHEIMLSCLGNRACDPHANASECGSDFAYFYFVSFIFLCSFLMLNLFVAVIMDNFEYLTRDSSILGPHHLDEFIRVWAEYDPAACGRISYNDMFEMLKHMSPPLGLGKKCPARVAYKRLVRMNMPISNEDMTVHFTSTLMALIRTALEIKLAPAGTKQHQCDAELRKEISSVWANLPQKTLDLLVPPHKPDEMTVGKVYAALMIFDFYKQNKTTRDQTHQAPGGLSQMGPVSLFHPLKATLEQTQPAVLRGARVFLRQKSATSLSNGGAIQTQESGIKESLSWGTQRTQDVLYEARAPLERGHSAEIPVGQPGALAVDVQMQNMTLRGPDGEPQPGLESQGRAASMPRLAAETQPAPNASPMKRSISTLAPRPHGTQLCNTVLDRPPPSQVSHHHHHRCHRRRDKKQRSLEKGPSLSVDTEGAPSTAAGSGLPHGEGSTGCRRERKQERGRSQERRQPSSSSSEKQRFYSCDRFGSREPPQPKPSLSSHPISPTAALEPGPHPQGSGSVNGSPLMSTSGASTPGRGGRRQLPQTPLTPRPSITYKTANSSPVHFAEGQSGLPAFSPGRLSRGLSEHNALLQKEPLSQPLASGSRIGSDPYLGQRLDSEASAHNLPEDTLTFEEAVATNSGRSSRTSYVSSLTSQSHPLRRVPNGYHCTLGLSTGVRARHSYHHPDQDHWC
T1 sequence (P54290 25-1091 partner): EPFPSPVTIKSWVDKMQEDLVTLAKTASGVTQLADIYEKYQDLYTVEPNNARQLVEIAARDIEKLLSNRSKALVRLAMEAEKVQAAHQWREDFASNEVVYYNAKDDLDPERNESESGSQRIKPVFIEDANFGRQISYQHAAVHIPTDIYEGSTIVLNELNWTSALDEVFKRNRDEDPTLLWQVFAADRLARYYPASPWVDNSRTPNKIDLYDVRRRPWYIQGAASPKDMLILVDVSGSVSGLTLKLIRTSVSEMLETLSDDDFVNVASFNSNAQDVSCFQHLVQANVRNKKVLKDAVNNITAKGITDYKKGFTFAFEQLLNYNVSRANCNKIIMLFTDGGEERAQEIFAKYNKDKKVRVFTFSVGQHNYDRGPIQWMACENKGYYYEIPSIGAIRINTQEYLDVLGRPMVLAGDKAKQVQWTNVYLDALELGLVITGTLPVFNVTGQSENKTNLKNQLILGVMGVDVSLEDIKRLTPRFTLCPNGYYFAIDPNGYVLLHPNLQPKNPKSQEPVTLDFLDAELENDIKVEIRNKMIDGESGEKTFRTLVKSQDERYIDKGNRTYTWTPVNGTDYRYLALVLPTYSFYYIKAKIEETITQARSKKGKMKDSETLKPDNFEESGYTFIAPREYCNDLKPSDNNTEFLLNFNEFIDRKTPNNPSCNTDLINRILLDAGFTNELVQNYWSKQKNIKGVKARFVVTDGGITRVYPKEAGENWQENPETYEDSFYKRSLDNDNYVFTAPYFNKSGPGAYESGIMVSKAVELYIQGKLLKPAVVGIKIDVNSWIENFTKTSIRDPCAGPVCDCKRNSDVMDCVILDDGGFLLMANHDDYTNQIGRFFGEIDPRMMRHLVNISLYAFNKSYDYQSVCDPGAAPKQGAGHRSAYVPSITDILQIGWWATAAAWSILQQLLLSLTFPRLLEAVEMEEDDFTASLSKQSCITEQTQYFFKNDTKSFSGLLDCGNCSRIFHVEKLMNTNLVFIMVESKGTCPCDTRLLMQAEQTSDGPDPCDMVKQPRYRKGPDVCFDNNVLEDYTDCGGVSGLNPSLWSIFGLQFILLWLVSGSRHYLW
T1 sequence (P54287 whole entry partner): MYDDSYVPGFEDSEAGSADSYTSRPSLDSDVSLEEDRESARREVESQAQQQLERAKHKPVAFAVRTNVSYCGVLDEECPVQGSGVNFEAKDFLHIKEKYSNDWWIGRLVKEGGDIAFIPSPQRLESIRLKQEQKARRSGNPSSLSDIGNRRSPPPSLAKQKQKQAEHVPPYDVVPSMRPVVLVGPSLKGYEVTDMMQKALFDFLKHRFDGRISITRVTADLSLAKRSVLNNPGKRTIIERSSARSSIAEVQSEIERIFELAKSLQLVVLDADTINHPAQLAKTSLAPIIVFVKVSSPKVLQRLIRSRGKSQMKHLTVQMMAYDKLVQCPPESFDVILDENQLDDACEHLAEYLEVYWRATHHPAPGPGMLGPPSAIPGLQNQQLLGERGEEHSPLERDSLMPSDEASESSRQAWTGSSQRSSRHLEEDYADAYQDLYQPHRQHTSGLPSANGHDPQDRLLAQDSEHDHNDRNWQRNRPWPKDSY

As for `CSCC[C@H](NC(=O)[C@H](CC(C)C)NC(=O)[C@H](CCCNC(=N)N)NC(=O)[C@H](CO)NC(=O)CNC(=O)[C@H](CCCCN)NC(=O)[C@H](CO)NC(=O)[C@H](CC(C)C)NC(=O)[C@H](CS)NC(=O)[C@H](Cc1ccccc1)NC(=O)[C@H](CCC(=O)O)NC(=O)[C@H](CCCCN)NC(=O)[C@@H](NC(=O)[C@H](CO)NC(=O)[C@H](CS)NC(=O)[C@H](CO)NC(=O)[C@H](CO)NC(=O)[C@H](CS)NC(=O)[C@H](CO)NC(=O)[C@H](CCC(N)=O)NC(=O)CNC(=O)[C@H](CCCCN)NC(=O)[C@@H](N)CS)[C@@H](C)O)C(=O)N[C@@H](Cc1ccc(O)cc1)C(=O)N[C@@H](CC(=O)O)C(=O)N[C@@H](CS)C(=O)N[C@@H](CS)C(=O)N[C@H](C(=O)NCC(=O)N[C@@H](CO)C(=O)N[C@@H](CS)C(=O)N[C@@H](CS)C(=O)NCC(=O)N[C@H](C(=O)N[C@@H](CCCCN)C(=O)N[C@H](C(=O)N[C@@H](C)C(=O)NCC(=O)N[C@H](C(=O)N[C@H](C(=O)O)[C@@H](C)O)C(C)C)[C@@H](C)O)C(C)C)[C@@H](C)O` [RsXXIVA] (H-CKGQSCSSCSTKEFCLSKGSRLMYDCCTGSCCGVKTAGVT-OH), in assay [1], the “CaV2.2 current before restoration (under toxin)” value is −442.9 ± 213.8 pA, the “CaV2.2 current restored after toxin washout” value is given as −798.2 ± 313.4 pA, the “Hill coefficient of dose-response for CaV2.2 current inhibition” value is recorded as 0.94 and the “affinity for CaV2.2 (in words)” value is on record as “low affinity for CaV2.2”. In addition, in assay [1], the “reversibility of CaV2.2 current inhibition after washing” value is given as “partially reversed after washing; also recorded: partially reversible; also recorded: the inhibition of the CaV2.2 channel current occurred reversibly” and the “time to inhibit CaV2.2 current” value is given as “less than 4 s”. In addition, in assay [1] (setting [4]), the inhibition (in general, the drop in the measured response relative to a control, in per cent) at 0.03 µM is 1.6 ± 0.1%; the inhibition at 0.3 µM turned out to be 12 ± 0.5%; the inhibition at 3 µM came to 58.1 ± 2.6%; the inhibition at 24 µM came to 97.9 ± 0.5%. The inhibition at 3 µM in assay [1] (read-out: percentage of inhibition compared to the block with 100 μM Cd2+) came out at 58.1%. Moreover, the “analgesic effect in hot-plate test (in words) compared with control (PBS)” value in the assay with adult male ICR mice [2] was “analgesic effect in acute thermal pain at 30 and 45 min post-injection; also recorded: significantly better than the control group (p < 0.05)”. The “hind paw licking in formalin test (in words) compared with control group” value in the assay on adult male ICR mice [3] is “significantly reduced the hind paw licking during both phase 1 (Figure 6A) and phase 2 (Figure 6B)”.
